Measured values taken from patent US20230295234A1, “ANTIMICROBIAL PEPTIDOMIMETICS” (SPEXIS AG, priority 2020, published 2023).
Read-outs that look alike come from different tables or passages of the source. Peptide text beside a SMILES is read from it.

Columns and labels:
[1] = tested on: Escherichia coli ATCC 25922; conditions: ATCC 25922
Outline: (§1)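 Standardized inocula (0.5 McFarland in saline, then diluted in MHII broth to approximately 5×10^5 CFU/mL) were exposed to two-fold dilution series of each peptide in the presence of polysorbate 80 (0.002% final).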

[2] = tested on: Klebsiella pneumoniae SSI3010; conditions: SSI3010
Outline: as §1

[3] = tested on: Escherichia coli MCR-1 Af 45
Outline: as §1

[4] = tested on: human red blood cells (hRBC); test: Hemolysis of human red blood cells; type: cell-based; conditions: red cells of human, 1 h
Outline: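 Percent hemolysis is OD540 of peptide-treated supernatant relative to water-lysed cells. Each peptide was tested at 200 μg/mL against 20% (v/v) washed human erythrocytes. Incubation was 1 h at 37 °C, 300 rpm.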

[5] = Mueller-Hinton broth II, 18-20 hours at 35° C.

SMILES | Escherichia coli ATCC 25922 MIC [1] | Klebsiella pneumoniae SSI3010 MIC [2] | Escherichia coli MCR-1 Af 45 MIC [3, 5] | Hemolysis at 0.2 g/L [4] | Escherichia coli MCR-1 Af 45 MIC ([3]; MCR-1 Af 45)
CC[C@H](C)[C@H](NC(=O)[C@@H]1C[C@@H](O)CN1C(=O)[C@@H](N)C(C)C)C(=O)N[C@H](C(=O)N[C@@H](Cc1ccc(O)cc1)C(=O)N[C@@H]1C(=O)N[C@@H](CC(N)=O)C(=O)N[C@@H](CCCNC(=N)N)C(=O)N[C@@H](CCN)C(=O)N[C@@H]([C@@H](C)O)C(=O)N[C@H](CCN)C(=O)N[C@@H](CO)C(=O)N[C@H](C(=O)N[C@@H](CCN)C(=O)N[C@@H](CCCNC(=N)N)C(=O)N[C@@H](Cc2ccc(O)cc2)C(=O)O)CSSC1(C)C)[C@@H](C)O [Example 170] (HELM PEPTIDE1{V.[Hyp].I.T.Y.[Pen].N.R.[Dab].T.[NCC[C@@H](N[*:1])C(=O)[*:2]].S.C.[Dab].R.Y}$PEPTIDE1,PEPTIDE1,6:R3-13:R3$$$V2.0) | 0.25 µg/mL | 0.5 µg/mL | 0.5 µg/mL | 0% | –
CC[C@H](C)[C@H](NC(=O)[C@@H]1C[C@@H](O)CN1C(=O)[C@@H](N)C(C)C)C(=O)N[C@H](C(=O)N[C@@H](Cc1ccc(O)cc1)C(=O)N[C@@H]1C(=O)N[C@@H](CC(N)=O)C(=O)N[C@@H](CCCNC(=N)N)C(=O)N[C@@H](CCN)C(=O)N[C@@H]([C@@H](C)O)C(=O)N[C@H](CCN)C(=O)N[C@@H](Cc2ccc(O)cc2)C(=O)N[C@H](C(=O)N[C@@H](CCN)C(=O)N[C@@H](CCCNC(=N)N)C(=O)N[C@@H](Cc2ccc(O)cc2)C(=O)O)CSSC1(C)C)[C@@H](C)O [Example 171] (HELM PEPTIDE1{V.[Hyp].I.T.Y.[Pen].N.R.[Dab].T.[NCC[C@@H](N[*:1])C(=O)[*:2]].Y.C.[Dab].R.Y}$PEPTIDE1,PEPTIDE1,6:R3-13:R3$$$V2.0) | 0.5 µg/mL | 0.25 µg/mL | 0.5 µg/mL | 0% | –
CC[C@H](C)[C@H](NC(=O)[C@@H]1C[C@@H](O)CN1C(=O)[C@@H](N)C(C)C)C(=O)N[C@H](C(=O)N[C@@H](Cc1ccc(O)cc1)C(=O)N[C@@H]1C(=O)N[C@@H](CC(N)=O)C(=O)N[C@@H](CCCNC(=N)N)C(=O)N[C@@H](CCN)C(=O)N[C@@H]([C@@H](C)O)C(=O)N[C@H](CCN)C(=O)N[C@@H](Cc2c[nH]c3ccccc23)C(=O)N[C@H](C(=O)N[C@@H](CCN)C(=O)N[C@@H](CCCNC(=N)N)C(=O)N[C@@H](Cc2ccc(O)cc2)C(=O)O)CSSC1(C)C)[C@@H](C)O [Example 172] (HELM PEPTIDE1{V.[Hyp].I.T.Y.[Pen].N.R.[Dab].T.[NCC[C@@H](N[*:1])C(=O)[*:2]].W.C.[Dab].R.Y}$PEPTIDE1,PEPTIDE1,6:R3-13:R3$$$V2.0) | 0.5 µg/mL | 0.5 µg/mL | 0.5 µg/mL | 0% | –
CC[C@H](C)[C@H](NC(=O)[C@@H]1C[C@@H](O)CN1C(=O)[C@@H](N)C(C)C)C(=O)N[C@H](C(=O)N[C@@H](Cc1ccc(O)cc1)C(=O)N[C@@H]1C(=O)N[C@@H](CC(N)=O)C(=O)N[C@@H](CCCNC(=N)N)C(=O)N[C@@H](CCN)C(=O)N[C@@H]([C@@H](C)O)C(=O)N[C@H](CCN)C(=O)N[C@@H](CC(N)=O)C(=O)N[C@H](C(=O)N[C@@H](CCN)C(=O)N[C@@H](CCCNC(=N)N)C(=O)N[C@@H](Cc2ccc(O)cc2)C(=O)O)CSSC1(C)C)[C@@H](C)O [Example 173] (HELM PEPTIDE1{V.[Hyp].I.T.Y.[Pen].N.R.[Dab].T.[NCC[C@@H](N[*:1])C(=O)[*:2]].N.C.[Dab].R.Y}$PEPTIDE1,PEPTIDE1,6:R3-13:R3$$$V2.0; N-terminus and C-terminus assumed) | 0.25 µg/mL | 0.5 µg/mL | – | 0% | 0.25 µg/mL
CC[C@H](C)[C@H](NC(=O)[C@@H]1C[C@@H](O)CN1C(=O)[C@@H](N)C(C)C)C(=O)N[C@H](C(=O)N[C@@H](Cc1ccc(O)cc1)C(=O)N[C@@H]1C(=O)N[C@@H](CC(N)=O)C(=O)N[C@@H](CCCNC(=N)N)C(=O)N[C@@H](CCN)C(=O)N[C@@H]([C@@H](C)O)C(=O)N[C@H](CCN)C(=O)N[C@@H](CCN)C(=O)N[C@H](C(=O)N[C@@H](CCN)C(=O)N[C@@H](CCCNC(=N)N)C(=O)N[C@@H](Cc2ccc(O)cc2)C(=O)O)CSSC1(C)C)[C@@H](C)O [Example 174] (HELM PEPTIDE1{V.[Hyp].I.T.Y.[Pen].N.R.[Dab].T.[NCC[C@@H](N[*:1])C(=O)[*:2]].[Dab].C.[Dab].R.Y}$PEPTIDE1,PEPTIDE1,6:R3-13:R3$$$V2.0) | 0.125 µg/mL | 0.25 µg/mL | 0.0625 µg/mL | 0% | –
CC[C@H](C)[C@H](NC(=O)[C@@H]1C[C@@H](O)CN1C(=O)[C@@H](N)C(C)C)C(=O)N[C@H](C(=O)N[C@@H](Cc1ccc(O)cc1)C(=O)N[C@@H]1C(=O)N[C@@H](CC(N)=O)C(=O)N[C@@H](CCCNC(=N)N)C(=O)N[C@@H](CCN)C(=O)N[C@@H]([C@@H](C)O)C(=O)N[C@H](CCN)C(=O)N[C@@H](CCCCN)C(=O)N[C@H](C(=O)N[C@@H](CCN)C(=O)N[C@@H](CC(C)C)C(=O)N[C@@H](Cc2ccc(O)cc2)C(=O)O)CSSC1(C)C)[C@@H](C)O [Example 175] (HELM PEPTIDE1{V.[Hyp].I.T.Y.[Pen].N.R.[Dab].T.[NCC[C@@H](N[*:1])C(=O)[*:2]].K.C.[Dab].L.Y}$PEPTIDE1,PEPTIDE1,6:R3-13:R3$$$V2.0) | 0.25 µg/mL | 0.5 µg/mL | 0.25 µg/mL | 0% | –
CC[C@H](C)[C@H](NC(=O)[C@@H]1C[C@@H](O)CN1C(=O)[C@@H](N)C(C)C)C(=O)N[C@H](C(=O)N[C@@H](Cc1ccc(O)cc1)C(=O)N[C@@H]1C(=O)N[C@@H](CC(N)=O)C(=O)N[C@@H](CCCNC(=N)N)C(=O)N[C@@H](CCN)C(=O)N[C@@H]([C@@H](C)O)C(=O)N[C@H](CCN)C(=O)N[C@@H](CCCCN)C(=O)N[C@H](C(=O)N[C@@H](CCN)C(=O)N[C@@H](CO)C(=O)N[C@@H](Cc2ccc(O)cc2)C(=O)O)CSSC1(C)C)[C@@H](C)O [Example 176] (HELM PEPTIDE1{V.[Hyp].I.T.Y.[Pen].N.R.[Dab].T.[NCC[C@@H](N[*:1])C(=O)[*:2]].K.C.[Dab].S.Y}$PEPTIDE1,PEPTIDE1,6:R3-13:R3$$$V2.0) | 0.25 µg/mL | 0.5 µg/mL | 0.25 µg/mL | 0% | –
CC[C@H](C)[C@H](NC(=O)[C@@H]1C[C@@H](O)CN1C(=O)[C@@H](N)C(C)C)C(=O)N[C@H](C(=O)N[C@@H](Cc1ccc(O)cc1)C(=O)N[C@@H]1C(=O)N[C@@H](CC(N)=O)C(=O)N[C@@H](CCCNC(=N)N)C(=O)N[C@@H](CCN)C(=O)N[C@@H]([C@@H](C)O)C(=O)N[C@H](CCN)C(=O)N[C@@H](CCCCN)C(=O)N[C@H](C(=O)N[C@@H](CCN)C(=O)N[C@@H](CCN)C(=O)N[C@@H](Cc2ccc(O)cc2)C(=O)O)CSSC1(C)C)[C@@H](C)O [Example 177] (HELM PEPTIDE1{V.[Hyp].I.T.Y.[Pen].N.R.[Dab].T.[NCC[C@@H](N[*:1])C(=O)[*:2]].K.C.[Dab].[Dab].Y}$PEPTIDE1,PEPTIDE1,6:R3-13:R3$$$V2.0) | 0.125 µg/mL | 0.25 µg/mL | 0.125 µg/mL | 0% | –
